# Experimental data as given in patent US20150283239A1, “GRAPHENE DERIVATIVE-BASED COMPOSITION FOR DRUG DELIVERY AND PREPARATION METHOD THEREOF” (Research & Business Foundation SUNGKYUNKWAN UNIVERSITY, priority 2014, published 2015).
# How the values were obtained:
# HCT116 cells = assay: In vitro cytotoxicity, MTT analysis; format: cell-based, Human; conditions: HCT116, 100 μg/mL, 24 hours
# Method: Human colon cancer cells (HCT116) were maintained in a Dulbecco's modified Eagle medium (DMEM), and supplemented with 10% fetal bovine serum (FBS) and antibiotics (10,000 μg/mL streptomycin and 10,000 unit/mL penicillin) at 37° C. in a humidified atmosphere containing 5% CO2(v/v).
# In vitro cytotoxicity was measured by using standard colorimetric 3-(4,5-dimethylthiazol-2-yl)-2,5-diphenyl tetrazolium bromide (MTT) analysis. For the MTT analysis, HCT116 cells were seeded in a 96-well cell-culture plate at 1×10^4/well, and cultured for 12 hours at 37° C. under 5% CO2. Thereafter, the HCT116 cells were cultured for 24 hours by using various concentrations ([…], 12.5, 25, 50, and 100 μg/mL) of GO, DGO, GQD, Cur, GO-Cur, DGO-Cur, and GQD-Cur. Next, 20 μl stock MTT (5 mg/mL) was added to each of the cells, and the cells were cultured under 5% CO2 at 37° C. for 4 hours. After the culture for additional 4 hours, the resulting formazan crystals were dissolved in dimethyl sulfoxide (DMED, 100 μl), and absorbance intensity was measured by a microplate reader at 570 nm. All the experiments were conducted in quadruplicate, and the relative cell viability (%) was expressed as a percentage relative to untreated control cells.
# HCT116 tumors = assay: In vivo drug delivery, tumor volume in HCT116 xenograft mice; set-up: species or system Balb/c female nude mice; conditions: 14 days, intratumoral single dose 10 mg/kg
# Method: Six (6) to seven (7)-week-old Balb/c female nude mice (weight of 21 g to 25 g) were purchased from Orient Bio Inc., (Seoul, Korea), and were maintained in a 12-hour light/12-hour darkness cycle (12:12LD) at a temperature of 22° C. to 24° C., in humidity of 40% to 60%, and with food and water ad libitum. HCT116 was trypsinized, washed twice with serum-free DMEM, and dispersed at a density of 1×10^7 cells/mL PBS. […] of the dispersed cells was subcutaneously injected into the right back region of the mice. After the tumor size reached about 150 mm^3, the mice were randomly divided into six (6) groups depending on differences in the minimum weight and tumor size. The mice were intratumorally injected with physiological saline, DGO, GQD, Cur, DGO-Cur, and GQD-Cur dispersions at a total dose of 10 mg/kg. The tumor size of each of the groups was measured by a caliper, and the tumor volume was calculated by using the following equation: tumor volume=ab^2×0.5236, where ‘a’ is the maximum diameter of tumor, and ‘b’ is the minimum diameter of tumor. Relative tumor volumes were calculated as V/V0 (V0 was the tumor volume when the treatment was initiated).
# Experimental female nude mice bearing subcutaneous xenografts were divided into groups and intratumorally injected with a single dose of each of physiological saline, pure DGO and GQDs, free Cur, or DGO-Cur and GQD-Cur composites. […]
smiles,measurement,setting,value
"COc1cc(/C=C/C(=O)CC(=O)/C=C/c2ccc(O)c(OC)c2)ccc1O [Cur, Curcumin]",cancer cells dead,HCT116 cells,about 70%
same,inhibition of tumor proliferation,HCT116 tumors,tumor proliferation was initially inhibited to some extent
